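Cells were grown in 96-well plates and exposed to each compound for 48 hours at five concentrations; endpoints were interpolated linearly between bracketing concentrations, or set to the highest concentration if not reached. TGI: concentration producing complete growth inhibition.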
Key:
Assay in all cases: NCI-60 cell line screen, 48 h
HOP-92 NSCLC = tested on: HOP-92 NSCLC
MDA-MB-435 = tested on: MDA-MB-435
NCI/ADR-RES ovarian = tested on: NCI/ADR-RES ovarian
EKVX NSCLC = tested on: EKVX NSCLC
UACC-62 melanoma = tested on: UACC-62 melanoma
HL-60(TB) leukemia = tested on: HL-60(TB) leukemia
MDA-N = tested on: MDA-N
MOLT-4 leukemia = tested on: MOLT-4 leukemia
CCRF-CEM leukemia = tested on: CCRF-CEM leukemia
U251 CNS = tested on: U251 CNS
RXF 393 renal = tested on: RXF 393 renal
SK-MEL-2 melanoma = tested on: SK-MEL-2 melanoma
NCI-H522 lung = tested on: NCI-H522 lung
A498 renal = tested on: A498 renal
IGROV1 ovarian = tested on: IGROV1 ovarian
A549 NSCLC = tested on: A549 NSCLC
HCC-2998 colon = tested on: HCC-2998 colon
HT29 colon = tested on: HT29 colon
SF-295 CNS = tested on: SF-295 CNS
SW-620 colon = tested on: SW-620 colon
T-47D breast = tested on: T-47D breast
SN12C renal = tested on: SN12C renal
PC-3 prostate = tested on: PC-3 prostate
NCI-H226 lung = tested on: NCI-H226 lung
HOP-62 NSCLC = tested on: HOP-62 NSCLC
COLO 205 colon = tested on: COLO 205 colon
UACC-257 melanoma = tested on: UACC-257 melanoma
K-562 leukemia = tested on: K-562 leukemia
TK-10 renal = tested on: TK-10 renal
OVCAR-5 ovarian = tested on: OVCAR-5 ovarian
HCT-15 colon = tested on: HCT-15 colon
786-0 renal = tested on: 786-0 renal
NCI-H23 lung = tested on: NCI-H23 lung
OVCAR-4 ovarian = tested on: OVCAR-4 ovarian
OVCAR-8 ovarian = tested on: OVCAR-8 ovarian
DU-145 prostate = tested on: DU-145 prostate
NCI-H460 lung = tested on: NCI-H460 lung
SK-MEL-5 melanoma = tested on: SK-MEL-5 melanoma
MALME-3M melanoma = tested on: MALME-3M melanoma
KM12 colon = tested on: KM12 colon
HS 578T breast = tested on: HS 578T breast
OVCAR-3 ovarian = tested on: OVCAR-3 ovarian
SK-MEL-28 melanoma = tested on: SK-MEL-28 melanoma
SF-268 CNS = tested on: SF-268 CNS
MCF7 breast = tested on: MCF7 breast
ACHN renal = tested on: ACHN renal
M14 melanoma = tested on: M14 melanoma
SR leukemia = tested on: SR leukemia
UO-31 renal = tested on: UO-31 renal
SNB-75 CNS = tested on: SNB-75 CNS
MDA-MB-231 breast = tested on: MDA-MB-231 breast
LOX IMVI melanoma = tested on: LOX IMVI melanoma
SK-OV-3 ovarian = tested on: SK-OV-3 ovarian
HCT-116 colon = tested on: HCT-116 colon
SF-539 CNS = tested on: SF-539 CNS
CAKI-1 renal = tested on: CAKI-1 renal
SNB-19 CNS = tested on: SNB-19 CNS
BT-549 breast = tested on: BT-549 breast

Measured: TGI

O=C1c2ccccc2S(=O)(=O)c2cc(-c3nn[nH]n3)ccc21
> 100 µM: all assays above
